Data on 14 sequences can be found in publication PMC6041393, “A Mechanistic Model for Predicting Cell Surface Presentation of Competing Peptides by MHC Class I Molecules” (Frontiers in Immunology, 2018).

What is called half-life is the time in which the quantity being followed falls by half.

Where two headings read alike, the source gives them in different places. Some results are limits rather than exact numbers.

For assay [1], the system named is NIT-1 insulinoma cells. The note with it: cited from earlier work; for enhancement of presentation by IFNγ: NIT-1 cells. The source says:
IFNγ is well known to stimulate the immune system, increasing expression of MHC-I heavy chain, β2-microglobulin, subunits of the immunoproteasome (MECL1, LMP2, and LMP7), TAP, tapasin, the ER aminopeptidase associated with antigen processing (ERAAP) ([41]) and the tapasin-related protein (TAPBPR); it is produced as part of the immune response against viruses. ...

Assay [2] deals with E10 Fab. In words: E10 Fab surface staining of peptide-pulsed RMA-S cells (flow cytometry). It is filed as binding. To be noted: flow cytometry surface staining of RMA-S cells pulsed with peptides. A general note: A flow cytometer gives signals particle by particle.
The target in assay [3] is T1, H-2Db (Mus musculus, UniProt P01899).
T1 sequence (P01899 25-362): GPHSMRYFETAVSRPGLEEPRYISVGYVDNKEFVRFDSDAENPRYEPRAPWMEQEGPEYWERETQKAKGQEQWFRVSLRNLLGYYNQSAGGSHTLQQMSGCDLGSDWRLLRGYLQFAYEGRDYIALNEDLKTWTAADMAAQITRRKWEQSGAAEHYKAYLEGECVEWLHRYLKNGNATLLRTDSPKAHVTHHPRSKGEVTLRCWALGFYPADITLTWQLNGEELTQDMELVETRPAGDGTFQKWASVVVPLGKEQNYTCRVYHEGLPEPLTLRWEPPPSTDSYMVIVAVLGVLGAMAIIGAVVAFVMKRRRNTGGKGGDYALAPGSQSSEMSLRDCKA
T1 sequence (P01887 21-119 partner): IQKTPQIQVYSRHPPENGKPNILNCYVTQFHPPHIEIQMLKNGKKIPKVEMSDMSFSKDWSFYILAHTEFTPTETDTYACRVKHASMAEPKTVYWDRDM
The assay is described as follows: Brefeldin A (BFA) decay assay of pMHC complexes at the cell surface. The class given is cell-based. Details: endogenous in cells; host or cells: RMA-S (TAP2-deficient mouse T cell line). The note with it: for t1/2 (peptide half-life of pMHC complex): BFA decay assay, RMA-S cells kept overnight at 26°C, pulsed with 20 μM peptide 1 h at 26°C, BFA added, decay at 37°C, B22 anti-H-2Db staining, flow cytometry, exponential fit; for Off-rates: converted from BFA decay half-life as log(2)/half-life (s). As for the experimental part:
Dissociation of pMHC complexes at the cell surface was assessed by BFA decay assay as described previously ([17]). RMA-S cells were incubated overnight at 26°C to maximize MHC-I surface expression. After being washed, 5 × 10^5 cells per well of a 96-U-bottom plate were pulsed, at different time intervals, with peptides (final concentration of 20 μM) for 1 h at 26°C. After washing with medium, de novo transport of MHC-I to the cell surface was blocked by the addition of BFA, and peptide-loaded RMA-S cells were incubated at 37°C to allow decay of unstable molecules. Cells were washed in FACS buffer and stained with B22 primary monoclonal Abs (conformation sensitive anti-H-2Db MAb) and goat anti-mouse IgG-PE secondary Abs (Abcam, Cambridge, UK) to detect peptide-loaded MHC-I molecules. Samples were analyzed by flow cytometry on a Fortessa X20 flow cytometer (BD, Oxford, UK), and data were analyzed with the Diva software. MFI values were background deducted by subtracting the MFI value obtained in the DMSO control at the last time point. Half-lives and off-rate constants were then determined by fitting the curves using an exponential trend line in the Excel software (Microsoft, USA).
We experimentally measured the stability of pMHC complexes by following their decay from the cell surface over time (“BFA decay assay” in Figure 2A), and used these measurements to calculate the corresponding unbinding rates of the peptides from MHC (Table 1; Figure S3 in Supplementary Material). Finally, to incorporate the effect of IFNγ into the model, we specified a new parameter (γ) that quantifies the increased supply of MHC and tapasin following IFNγ treatment.

For assay [4], the system named is B44:02. Details: method as in PMID 26375851. To be noted: B lymphoblastoid cell lines; cited from earlier work.
Assay [5] concerns the target T1, H-2Db. The assay is described as follows: pMHC competition assay in co-transfected B6 fibroblasts; surface pMHC quantified with Qifikit beads, cytoplasmic peptide with mCherry beads. It is filed as cell-based. To be noted: for change of surface expression of peptide–H2Db complexes with IFNγ: fibroblasts treated with IFNγ for 48 h versus untreated; for surface expression of ASN variant–H2Db: IFNγ-treated fibroblasts, E10 Fab staining; for number of pMHC complexes presented on the cell surface: untreated fibroblasts, 1C3 Mab, Qifikit calibration beads. Here is the method:
Fibroblasts were seeded at 2 × 10^5 cells per 6 cm diameter Petri dish. When IFNγ treatment was applied, 1 µg of mouse IFNγ (Peprotech, Rocky Hill, USA) was added per Petri dish 4 h after seeding. Cells were transfected the following day with TransIT-LT1 (Mirus, Madison, USA) following the manufacturer’s recommendations using 2.5 µg of each Venus-Ub-peptide and mCherry-Ub-peptide constructs. 1 day after transfection cells were stained for 45 min on ice with primary reagents, 1C3 hybrid Mab neat supernatant, E10 purified Fab, B22, or Y3 purified Mabs to detect surface pMHC complexes. After washing, cells were incubated for 45 min with AF647-conjugated goat anti-human IgG (used after Fab primary) or goat anti-mouse (after mouse antibodies including 1C3) (Invitrogen/Molecular Probes, Eugene, USA). Flow cytometry was performed using a Fortessa X20 cytometer (BD) and the data were analyzed using FACS Diva software (BD).
mCherry flow cytometry calibration beads (Clontech/Takara, USA) were used, as recommended by the manufacturer, to calibrate the amount of mCherry molecules, equivalent to the number of peptide molecules expressed in the transfected cells. Beads were run through the flow cytometer using the same setup as for acquiring cells.
The number of […]-H2Db complexes presented on the cell surface was estimated using Qifikit beads (Dako, Glostrup, Denmark). Beads were treated as recommended by the manufacturer but stained with AF647-conjugated goat anti-mouse IgG (Invitrogen) at the same dilution as used to detect the 1C3 Mab on transfected cells. A calibration curve was drawn by plotting the MFI of the 5 peaks (x-axis) versus the lot-specific numbers of antibody molecules per bead (y-axis). The curve was then used to calculate the number of […]-H2Db complexes presented on the cell surface expressed in antibody-binding capacity units (number of primary mouse monoclonal antibodies per cell).
To establish how variation in the intracellular abundance of competing peptides influences cell surface presentation, we developed an assay in which intracellular peptide supply and pMHC cell surface abundance could be measured simultaneously (Figure 1A), assay adapted from Ref. ([35]). Furthermore, this method measures the abundance of peptides actually presented at the surface of living cells and not, as for quantitative high-throughput methods, the abundance of peptides remaining bound to MHC after biochemical purification of pMHC I complexes from cell lysates. Two fluorescent fusion proteins, Venus-ubiquitin-[…] (faster off-rate, see Table 1) and mCherry-ubiquitin-[…] (slower off-rate) are co-expressed in fibroblasts. Once expressed in the cytoplasm, the fusion proteins are cleaved by endogenous cytoplasmic ubiquitin hydrolases, releasing the peptides at an equimolecular ratio to their respective fluorescent reporter protein (Figure 1A) that can be quantified by flow cytometry ([36]) (Figure S1 in Supplementary Material). Using this system, the generation of peptides bypasses the proteasome. After translocation into the ER, peptides compete for loading onto MHC-I molecules and are transported to the cell surface where they can be quantified by flow cytometry (Figure 1A). Both fusion proteins were naturally expressed at a broad range of concentrations after transient transfection, allowing in a single experiment to compare peptide surface presentation in cells expressing low to high levels of both fusion proteins (Figure 1B). To analyze competition between both peptides, cells were partitioned into different gates according to their expression level of mCherry, reporter for the level of expression of […], and Venus, reporter for the level of […] (Figure 1B). Competition was then assessed by plotting surface expression of […]-H2Db as a function of increasing cytoplasmic expression of the […] target peptide for increasing levels of competing peptide (Venus levels 1–7 in Figure 1B). […]

The target of assay [6] is H-2Dd (Mus musculus, UniProt P01900). The note with it: H-2Dd binding CT26 epitope; cited from earlier work.
The mark [7] stands for this setting: NIT-1 cells after IFNγ treatment.
The mark [8] stands for this setting: mCherry-SSLENFRAYV at around 10^4 MFI units.

As to SYFPEITHI, the “presentation, copies per cell” value in assay [1] (setting [7]) is recorded as ~ 15,000 copies per cell; in assay [1] (untreated NIT-1 cells) it was ~ 2,000 copies per cell. In addition, in assay [1], the “enhancement of presentation by IFNγ” value is recorded as 7.5 fold increase.

On to ASNENMETL, for which the “E10 score (E10 Fab binding to peptide–H2Db complexes)” value (shortened to “E10 score”) in assay [2] turned out to be 11.8 MFI/1000. Moreover, in assay [3], the “t1/2 (peptide half-life of pMHC complex)” value is 191 min and the Off-rates came out at 6.1e-05 s⁻¹.

For VYLKTNVFK, the “presentation, copies per cell” value in assay [1] (setting [7]) is reported as 25 copies per cell; in assay [1] (untreated NIT-1 cells) it was 1 copies per cell. Besides, the “enhancement of presentation by IFNγ” value in assay [1] was 25 fold increase.

For ASIENLETM, the “E10 score” value in assay [2] is recorded as 1.8 MFI/1000. Further, in assay [3], the “t1/2 (peptide half-life of pMHC complex)” value was found to be 502 min and the Off-rates is 2.3e-05 s⁻¹.

On to “AETPDIKLF [human peptide derived from the RS5 protein, eluted from B44:02 complexes]”, for which the “copies eluted from B44:02 complexes” value in assay [4] was “around 45,000 copies”.

With ASNENMETM, in assay [2], the “E10 score” value came to 11.5 MFI/1000. The “change of surface expression of peptide–H2Db complexes with IFNγ” value in assay [5] is reported as “increased around fourfold”. Also, the “ASNENMETM expression required to inhibit SSLENFRAYV presentation by 50%, with IFNγ compared to non-IFNγ-treated cells” value in assay [5] (setting [8]) was “around ten times more”. Moreover, in assay [3], the “t1/2 (peptide half-life of pMHC complex)” value is 223 min and the Off-rates was 5.2e-05 s⁻¹.

In the case of GGPESFYCASW, the half-life in assay [6] is recorded as 20 min.

For the sequence ASNENLETM, the “E10 score” value in assay [2] was determined as 4.1 MFI/1000. For the same sequence, in assay [3], the “t1/2 (peptide half-life of pMHC complex)” value is reported as 238 min and the Off-rates amounted to 4.9e-05 s⁻¹.

On to ASNEAMETM, for which the “E10 score” value in assay [2] came out at 8.2 MFI/1000. The “surface expression of ASN variant–H2Db” value in assay [5] is recorded as “unable to reach or remain at the cell surface at detectable levels”. In assay [3], the “t1/2 (peptide half-life of pMHC complex)” value is reported as 43 min and the Off-rates stood at 0.00027 s⁻¹.

With ASNENMETV, in assay [2], the “E10 score” value was 16.8 MFI/1000. Besides, in assay [5], the “surface expression of ASN variant–H2Db” value is on record as “unable to reach or remain at the cell surface at detectable levels”. Besides, in assay [3], the “t1/2 (peptide half-life of pMHC complex)” value amounted to 132 min and the Off-rates was 8.8e-05 s⁻¹.

For the sequence ASIENMETM, the “E10 score” value in assay [2] is reported as 8.9 MFI/1000. For the same sequence, in assay [3], the “t1/2 (peptide half-life of pMHC complex)” value is 456 min and the Off-rates was determined as 2.5e-05 s⁻¹.

SSLENFRAYV: the “E10 score” value in assay [2] came to 3.8 MFI/1000. In assay [5], the “change of surface expression of peptide–H2Db complexes with IFNγ” value was “increased around fourfold”. For the same sequence, the “cytoplasmic expression at which surface expression could be detected” value in assay [5] (mCherry calibration beads) is reported as ~10^6 copies per cell. The “cytoplasmic expression in transfected cells” value in assay [5] (mCherry calibration beads, maximum) is “up to 10^8 copies per cell”. In addition, the “cell surface abundance in the absence of competitor” value in assay [5] (setting [8]) is recorded as “around 4 × 10^4 complexes”. Further, the “copies expressed at the cell surface in the absence of competition” value in assay [5] (mCherry-SSLENFRAYV at around 10^4 MFI units, printed in brackets after non-IFNγ-treated cells) is given as 25 × 10^4 copies. For the same sequence, in assay [5] (absence of ASNENMETM competition), the “number of pMHC complexes presented on the cell surface” value was “up to 80,000 pMHC complexes”. In addition, in assay [5] (highest level of ASNENMETM competitor), the “number of pMHC complexes presented on the cell surface” value is on record as ≤ 10,000 pMHC complexes. Moreover, in assay [3], the “t1/2 (peptide half-life of pMHC complex)” value worked out at 408 min and the Off-rates is 2.8e-05 s⁻¹.

For ASNENMETA, the “E10 score” value in assay [2] worked out at 14.2 MFI/1000. Besides, the “surface expression of ASN variant–H2Db” value in assay [5] is reported as “unable to reach or remain at the cell surface at detectable levels”. Further, in assay [3], the “t1/2 (peptide half-life of pMHC complex)” value is listed as 52 min and the Off-rates was 0.00022 s⁻¹.

In the case of ASNENMETI, the “E10 score” value in assay [2] worked out at 13.1 MFI/1000. Also, in assay [3], the “t1/2 (peptide half-life of pMHC complex)” value is recorded as 212 min and the Off-rates came out at 5.4e-05 s⁻¹.
